Experimental data published in PMC9858421 (Journal of Enzyme Inhibition and Medicinal Chemistry, 2023).
“Also recorded” adds a separate entry of the source. Where two headings read alike, the source gives them in different places.

Key:
hVDAC1 [1] = biological target: T1, hVDAC1 (Homo sapiens, UniProt P21796); assay: MST binding check; details: 100 nM hVDAC1, highest soluble ligand concentration
VDAC1 = details: PLB, cited from earlier work
hVDAC1 [2] = biological target: T1, hVDAC1; assay: MST dose-response experiment; assay type: binding
rVDAC1 = details: cited from earlier work
hVDAC1 [3] = biological target: T1, hVDAC1; assay: NanoDSF thermal shift; assay type: binding; details: hVDAC1 in LDAO; compared to hVDAC1 alone at 0% or 5% DMSO
hVDAC1 [4] = biological target: T1, hVDAC1; details: read-out: Published Kd; cited from earlier work
[5] = MST dose-response, 100 nM hVDAC1, 16 concentrations

T1 sequence (P21796 whole entry): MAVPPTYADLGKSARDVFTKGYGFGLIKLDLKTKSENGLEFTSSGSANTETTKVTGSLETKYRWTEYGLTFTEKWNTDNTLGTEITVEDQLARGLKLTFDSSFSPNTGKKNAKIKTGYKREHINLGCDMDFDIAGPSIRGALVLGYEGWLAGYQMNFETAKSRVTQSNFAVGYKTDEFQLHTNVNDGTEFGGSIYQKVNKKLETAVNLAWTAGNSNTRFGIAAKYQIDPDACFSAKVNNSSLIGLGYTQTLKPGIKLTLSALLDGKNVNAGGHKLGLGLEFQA

MST Binding Check (hVDAC1 [1])	Kd (hVDAC1 [2])	Tm shift in NanoDSF (direction / significance, in words) (hVDAC1 [3])	SMILES	also measured
Positive	5 ± 2 µM	–	CCC(C)n1ncn(-c2ccc(N3CCN(c4ccc(OCC5COC(Cn6cncn6)(c6ccc(Cl)cc6Cl)O5)cc4)CC3)cc2)c1=O (centres unmarked) [Itraconazole]	MST Binding Check (hVDAC1 [1]; listed as itraconazole): binding was shown; Kd (rVDAC1; read-out: Published Kd): 120 µM
Positive	–	not been confirmed as VDAC1 ligands	CN(C)C(=N)N=C(N)N [Metformin]	MST Binding Check (hVDAC1 [1]; listed as metformin): validated by binding check; Effect(s) on activity (VDAC1; MST): Reduces conductance No binding observed by MST
Positive	–	negative Tm shift	CC(C)CCC[C@@H](C)[C@H]1CC[C@H]2[C@@H]3CCC4=CC(=NO)CC[C@]4(C)[C@H]3CC[C@]12C [Olesoxime]	MST Binding Check (hVDAC1 [1]; listed as olesoxime): validated by binding check; Effect(s) on activity (VDAC1): Reduces conductance
Positive	–	negative Tm shift	C=C[C@H]1C[N@@]2CC[C@H]1C[C@@H]2[C@@H](O)c1ccnc2ccc(OC)cc12 [Quinidine]	MST Binding Check (hVDAC1 [1]; listed as quinidine): validated by binding check

Further lines, the compound ahead of its results:

SMILES	MST Binding Check (hVDAC1 [1])	Kd (hVDAC1 [2])	Tm shift in NanoDSF (direction / significance, in words) (hVDAC1 [3])	also measured
CC(=O)Oc1ccccc1C(=O)O [Aspirin]	Positive	–	–	MST Binding Check (hVDAC1 [1]; listed as aspirin): validated by binding check
C=C(C)[C@@H]1CCC(C)=C[C@H]1c1c(O)cc(CCCCC)cc1O [Cannabidiol]	Positive	6 ± 2 µM	increase the Tm; also recorded: positive	Effect(s) on activity (VDAC1; MST): Reduces conductance Increases mitochondrial Ca^2+; Kd (hVDAC1 [2]; [5]): < 10 µM; Kd (rVDAC1; read-out: Published Kd, listed as cannabidiol): 11 µM; Kd (rVDAC1; read-out: Published Kd): 11.2 µM
O.Oc1cc(O)c2c(c1)O[C@H](c1ccc(O)c(O)c1)[C@@H](O)C2 [Catechin]	–	–	increase the Tm; also recorded: significant Tm shift	–
COc1cc(/C=C/C(=O)CC(=O)/C=C/c2ccc(O)c(OC)c2)ccc1O [Curcumin]	Positive	6 ± 1 µM	negative Tm shift	Effect(s) on activity (VDAC1): Reduces conductance by promoting closed state(s); Kd (hVDAC1 [2]; [5]): < 10 µM
C(=NC1CCCCC1)=NC1CCCCC1 [DCCD]	Positive	–	increase the Tm	Effect(s) on activity (VDAC1; NMR, [14C] DCCD-labelled VDAC1): Reduces conductance Inhibits HK-VDAC1 binding
O=C(O)c1ccccc1Nc1ccccc1 [DPC]	validated by binding check; also recorded: Positive	–	negative Tm shift	Effect(s) on activity (VDAC1; MST): Reduces conductance Prevents oligomerization; Kd (rVDAC1; read-out: Published Kd): 150 µM
Cc1cc(O)c2c(c1)C(=O)c1cc(O)cc(O)c1C2=O [Emodin]	Positive	10 ± 5 µM	not been confirmed as VDAC1 ligands; also recorded: no significant changes in Tm	MST Binding Check (hVDAC1 [1]; listed as emodin): binding was shown
CNCCC(Oc1ccc(C(F)(F)F)cc1)c1ccccc1 (centres unmarked) [Fluoxetine]	–	–	–	Effect(s) on activity (VDAC1): Reduces conductance Prevents Cyto C release
NC(=O)C1=CN([C@@H]2O[C@H](COP(=O)(O)OP(=O)(O)OC[C@H]3O[C@@H](n4cnc5c(N)ncnc54)[C@H](O)[C@@H]3O)[C@@H](O)[C@H]2O)C=CC1 [NADH]	validated by binding check; also recorded: Positive	–	not been confirmed as VDAC1 ligands	Effect(s) on activity (VDAC1; NMR): Affects gating without reducing the conductance Sterically closes the channel; Kd (hVDAC1 [4]): 9000 µM
CC(C)c1cccc(C(C)C)c1O [Propofol]	Positive	> 650 µM	increase the Tm	Effect(s) on activity (VDAC1): Promotes closure when a negative voltage is applied No effects on open state conductance
